Legend:
[1] = test system: human foreskin fibroblast (HFF) cell monolayers; experiment: Toxicity effects controls: sham-inoculated compound-treated HFF monolayers; type: cell-based; as to Toxicity effects: key: +: toxic; -: no toxicity; ±: mild toxicity; T: toxicity effects interfered with CPE rating
Excerpt: (§1) With sufficient stirring, all the compounds completely dissolved.
In the tables, the symbols have the meaning indicated: […]

VZV = experiment: In vitro assay with VZV on HFF monolayers; type: cell-based; conditions: Table 20, 7 days PI
Experimental: VZV was grown to a CPE level in vitro assays with VZV of 3-4+ on HFF cell monolayers. The VZV was scraped from the flask, centrifuged and the cell pellet was resuspended in 10 ml of complete medium. One hundred to 200 μl of the VZV cell associated inoculum was inoculated onto confluent HFF cell monolayers by absorption for 60 minutes at 37° C. After absorption of the virus, the inoculum was aspirated from the cell monolayers.
The VZV-infected monolayers were rehydrated with medium containing the appropriate concentrations of compounds to be tested. All monolayers were incubated at 37° C. Development of VZV cytopathology was monitored daily for 7 days by inverted light microscopy. Titers were calculated by multiple regression analysis.
Sham-inoculated, non-treated HFF cell monolayers were included among with the drug-treated monolayers as cell monolayer controls.
VZV inoculated, non-treated HFF monolayers were included as positive controls.

HFF cells = experiment: MTT assay for cell cytotoxicity; type: cell-based, human; conditions: stationary cells
Experimental: Twenty-four hours prior to assay, HFF cells are plated into 96 well plates at a concentration of […] cells per well. After 24 h, the media is aspirated and […] of drug is added to the first row of wells and then diluted serially 1:5 using the automated Cetus Liquid Handling System in a manner similar to that used in the CPE assay. The plates are then incubated in a CO2 incubator at 37° C. for seven days. At this time, each well receives 50 microliters of […] solution of MTT in Dulbecco's Phosphate Buffered Saline. The plates are then incubated for an additional four hours. At this time, the media is removed and replaced with 100 μl of 0.04N hydrochloric acid in isopropanol. After shaking briefly, the plates are then read on a plate reader at 550 nm.

HSV-1 McKrae Strain [2] = experiment: Intracellular antiviral activity against HSV-1 in HFF monolayers; type: cell-based; conditions: Experiment 7 (Table 18), 24 h PI
Experimental: (§2) HSV-1 McKrae Strain was diluted to a final concentration of 10^5 PFU/ml in minimal essential medium (MEM). Hereinafter, this dilution is referred to as the HSV-1 Suspension for convenience.
as §1
HFF cell monolayers were inoculated with the HSV-Suspension prepared as above by absorption for thirty minutes at 37° C. After absorption of the virus, the inoculum was aspirated from the cell monolayers and the HSV-1 infected monolayers were rehydrated with medium containing the appropriate concentration of the solution of the compound by adding 500 microliters of each compound concentration to triplicate HSV-1 infected monolayers. All monolayers were incubated at 37° C. The developing HSV-1 cytopathology was monitored daily for two days by inverted light microscopy and titers were calculated by multiple […] analysis. For the intracellular anti-viral activity, "cell monolayer controls" were obtained using sham inoculated non-treated HFF cell monolayers along with the drug treated monolayers. "Positive controls" were obtained by using HSV-1 inoculated non-CTC compound treated HFF monolayers.

HSV-1 McKrae Strain [3] = experiment: Direct virucidal efficacy against HSV-1 on HFF monolayers; type: cell-based; conditions: for effective virucidal concentration IC90 / effective virucidal concentration IC50: HSV-1
Experimental: as §2, §1
Each of the drug solutions were mixed with the HSV-1 Suspension in a 1:1 ratio. The drug and HSV-1 Suspension mixture was incubated at 37° C. for thirty minutes with agitation every ten minutes. After the incubation, fifty microliter aliquots were overlaid onto triplicate confluent human foreskin fibroblast (HFF) cell monolayers. The inoculum was absorbed for thirty minutes and then a medium containing the appropriate drug concentration in MEM was added to the monolayers to a final volume of 0.5 milliliters per culture-well. The monolayers were incubated at 37° C. The developing HSV-1 Cytopathology was monitored daily for two days by inverted light microscopy. Titers were calculated by multiple regression analysis. All data is presented as the average PFU/ml reduction at 24 and/or 48 hours after inoculation (PI).
1. HSV-1 inoculated, non-compound treated HFF monolayers were included as "positive controls"; and […]

[4] = Experiment 1 (Table 1), 24 h PI, 0.001 mg/ml
[5] = Experiment 1 (Table 1), 24 h PI, 0.01 mg/ml
[6] = Experiment 1 (Table 1), 24 h PI, 0.1 mg/ml
[7] = Experiment 1 (Table 1), 24 h PI, 1 mg/ml
[8] = Experiment 1 (Table 1), 48 h PI, 0.001 mg/ml
[9] = Experiment 1 (Table 1), 48 h PI, 0.01 mg/ml
[10] = Experiment 1 (Table 1), 48 h PI, 0.1 mg/ml
[11] = Experiment 1 (Table 2), 24 h PI, 0.001 mg/ml
[12] = Experiment 1 (Table 2), 24 h PI, 0.1 mg/ml
[13] = Experiment 1 (Table 2), 24 h PI, 10 mg/ml
[14] = Experiment 1 (Table 2), 24 h PI, .01 mg/ml
[15] = Experiment 1 (Table 2), 48 h PI, 1 mg/ml
[16] = Experiment 1 (Table 2), 48 h PI, 10 mg/ml
[17] = Experiment 2 (Table 5), 24 h PI, 0.001 mg/ml
[18] = Experiment 2 (Table 5), 24 h PI, 0.1 mg/ml
[19] = Experiment 2 (Table 5), 24 h PI, 10 mg/ml
[20] = Experiment 2 (Table 5), 48 h PI, 1 mg/ml

CC1=CC(C)=[N+]2CC[N+]3=C(C)C=C(C)[O][Co-3]23([NH3+])([NH3+])[O]1.[Cl-] [Compound 23, reference compound]
toxicity effects [1, 4]: -
toxicity effects [1, 5]: -
toxicity effects [1, 6]: -
toxicity effects [1, 7]: -
toxicity effects [1, 8]: -
toxicity effects [1, 9]: -
toxicity effects [1, 10]: -
toxicity effects ([1]; Experiment 1 (Table 1), 48 h PI, 10 mg/ml): +
toxicity effects ([1]; Experiment 3 (Table 7), 24 h PI, 0.001 mg/ml): -
toxicity effects ([1]; Experiment 3 (Table 7), 24 h PI, 0.01 mg/ml): -
toxicity effects ([1]; Experiment 3 (Table 7), 24 h PI, 0.1 mg/ml): -
toxicity effects ([1]; Experiment 3 (Table 7), 48 h PI, 0.001 mg/ml): -
toxicity effects ([1]; Experiment 3 (Table 7), 48 h PI, 0.01 mg/ml): -
toxicity effects ([1]; Experiment 3 (Table 7), 48 h PI, 0.1 mg/ml): -
toxicity effects ([1]; Experiment 6 (Table 15), 48 h, 0.001 mg/ml): -
toxicity effects ([1]; Experiment 6 (Table 15), 48 h, 0.01 mg/ml): -
toxicity effects ([1]; Experiment 6 (Table 15), 48 h, 0.1 mg/ml): -
toxicity effects ([1]; Experiment 6 (Table 15), 48 h, 0.5 mg/ml): -
toxicity effects ([1]; Experiment 6 (Table 15), 48 h, 1 mg/ml): -
virucidal efficacy (VZV titer) (VZV; 0.1 mg/ml, toxicity observation questionable): T?
virucidal efficacy (VZV titer) (VZV; 0.5 mg/ml): 0 PFU/ml
virucidal efficacy (VZV titer) (VZV; 1 mg/ml): 0 PFU/ml
virucidal efficacy (VZV titer) (VZV; 2 mg/ml): 0 PFU/ml
virucidal efficacy (VZV titer) (VZV; 5 mg/ml): 0 PFU/ml
toxicity IC50, MTT toxicity (HFF cells): > 61 MCG/ML
antiviral efficacy (HSV-1 titer) (HSV-1 McKrae Strain [2]; 0.01 mg/ml): 10^2 PFU/ml
antiviral efficacy (HSV-1 titer) (HSV-1 McKrae Strain [2]; 0.5 mg/ml): 0-10^1 PFU/ml
antiviral efficacy (HSV-1 titer) (HSV-1 McKrae Strain [2]; 1 mg/ml): 0 PFU/ml
antiviral efficacy (HSV-1 titer) (HSV-1 McKrae Strain [2]; 2 mg/ml): 0 PFU/ml
antiviral efficacy (HSV-1 titer) (HSV-1 McKrae Strain [2]; 5 mg/ml): 0 PFU/ml
virucidal efficacy (HSV-1 titer) (HSV-1 McKrae Strain [3]; [11]): 10^5 PFU/ml
virucidal efficacy (HSV-1 titer) (HSV-1 McKrae Strain [3]; [12]): 10^1 PFU/ml
virucidal efficacy (HSV-1 titer) (HSV-1 McKrae Strain [3]; Experiment 1 (Table 2), 24 h PI, 1 mg/ml): 0 PFU/ml
virucidal efficacy (HSV-1 titer) (HSV-1 McKrae Strain [3]; [13]): 0 PFU/ml
virucidal efficacy (HSV-1 titer) (HSV-1 McKrae Strain [3]; [14]): 10^3 PFU/ml
virucidal efficacy (HSV-1 titer) (HSV-1 McKrae Strain [3]; Experiment 1 (Table 2), 48 h PI, 0.1 mg/ml): 10^5 PFU/ml
virucidal efficacy (HSV-1 titer) (HSV-1 McKrae Strain [3]; [15]): 10^5 PFU/ml
virucidal efficacy (HSV-1 titer) (HSV-1 McKrae Strain [3]; [16]): O/T
effective virucidal concentration IC90 (HSV-1 McKrae Strain [3]; Experiment 1 (Table 3)): 100 µg/mL
virucidal efficacy (HSV-1 titer) (HSV-1 McKrae Strain [3]; [17]): 10^3 PFU/ml
virucidal efficacy (HSV-1 titer) (HSV-1 McKrae Strain [3]; Experiment 2 (Table 5), 24 h PI, 0.01 mg/ml): 10^2 PFU/ml
virucidal efficacy (HSV-1 titer) (HSV-1 McKrae Strain [3]; [18]): 10^1 PFU/ml
virucidal efficacy (HSV-1 titer) (HSV-1 McKrae Strain [3]; Experiment 2 (Table 5), 24 h PI, 1 mg/ml): 0 PFU/ml
virucidal efficacy (HSV-1 titer) (HSV-1 McKrae Strain [3]; [19]): 0 PFU/ml
virucidal efficacy (HSV-1 titer) (HSV-1 McKrae Strain [3]; Experiment 2 (Table 5), 48 h PI, 0.1 mg/ml): 10^5 PFU/ml
virucidal efficacy (HSV-1 titer) (HSV-1 McKrae Strain [3]; [20]): 0 PFU/ml
virucidal efficacy (HSV-1 titer) (HSV-1 McKrae Strain [3]; Experiment 2 (Table 5), 48 h PI, 10 mg/ml): O/T
virucidal efficacy (HSV-1 titer) (HSV-1 McKrae Strain [3]; Experiment 3 (Table 8), 24 h PI, 0.001 mg/ml): 10^5 PFU/ml
virucidal efficacy (HSV-1 titer) (HSV-1 McKrae Strain [3]; Experiment 3 (Table 8), 24 h PI, 0.01 mg/ml): 10^3 PFU/ml
virucidal efficacy (HSV-1 titer) (HSV-1 McKrae Strain [3]; Experiment 3 (Table 8), 24 h PI, 0.1 mg/ml): 10^1 PFU/ml
virucidal efficacy (HSV-1 titer) (HSV-1 McKrae Strain [3]; Experiment 3 (Table 8), 24 h PI, 1 mg/ml): 0 PFU/ml
virucidal efficacy (HSV-1 titer) (HSV-1 McKrae Strain [3]; Experiment 3 (Table 8), 48 h PI, 0.1 mg/ml): 10^5 PFU/ml
virucidal efficacy (HSV-1 titer) (HSV-1 McKrae Strain [3]; Experiment 3 (Table 8), 48 h PI, 1 mg/ml): 10^5 PFU/ml
virucidal efficacy (HSV-1 titer) (HSV-1 McKrae Strain [3]; Experiment 6 (Table 16), 24 h PI, 0.1 mg/ml): 10^0-1 PFU/ml
virucidal efficacy (HSV-1 titer) (HSV-1 McKrae Strain [3]; Experiment 6 (Table 16), 24 h PI, 0.5 mg/ml): 0 PFU/ml
virucidal efficacy (HSV-1 titer) (HSV-1 McKrae Strain [3]; Experiment 6 (Table 16), 24 h PI, 1 mg/ml): 0 PFU/ml
virucidal efficacy (HSV-1 titer) (HSV-1 McKrae Strain [3]; Experiment 6 (Table 16), 24 h PI, 2 mg/ml): 0 PFU/ml
virucidal efficacy (HSV-1 titer) (HSV-1 McKrae Strain [3]; Experiment 6 (Table 16), 24 h PI, 5 mg/ml): 0 PFU/ml

CC([O-])=CC(C)=NCCN=C(C)C=C(C)[O-].[Cl-].[Co+3].c1c[nH]cn1.c1c[nH]cn1 [Compound 82]
toxicity effects [1, 4]: -
toxicity effects [1, 5]: -
toxicity effects [1, 6]: -
toxicity effects [1, 7]: -
toxicity effects ([1]; Experiment 1 (Table 1), 24 h PI, 10 mg/ml): -
toxicity effects [1, 8]: -
toxicity effects [1, 9]: -
toxicity effects [1, 10]: -
toxicity effects ([1]; Experiment 1 (Table 1), 48 h PI, 1 mg/ml): -
toxicity compared with 23 and 76 ([1]; Experiment 1 comment, less than the observed toxicity of 23 and 76): one order of magnitud
virucidal efficacy (HSV-1 titer) (HSV-1 McKrae Strain [3]; [11]): 10^5 PFU/ml
virucidal efficacy (HSV-1 titer) (HSV-1 McKrae Strain [3]; [12]): 10^2 PFU/ml
virucidal efficacy (HSV-1 titer) (HSV-1 McKrae Strain [3]; [13]): 0 PFU/ml
virucidal efficacy (HSV-1 titer) (HSV-1 McKrae Strain [3]; [14]): 10^4 PFU/ml
virucidal efficacy (HSV-1 titer) (HSV-1 McKrae Strain [3]; [15]): 10^5 PFU/ml
virucidal efficacy (HSV-1 titer) (HSV-1 McKrae Strain [3]; [16]): O/T
effective virucidal concentration IC50 (HSV-1 McKrae Strain [3]; Experiment 1 (Table 3)): 100 µg/mL
effective virucidal concentration IC90 (HSV-1 McKrae Strain [3]; Experiment 1 (Table 3)): 1000 µg/mL
virucidal efficacy (IC50) compared with 23 and 76 (HSV-1 McKrae Strain [3]; Experiment 1 comment, less than that observed for 23 and 76): one order of magnitude less
virucidal efficacy (HSV-1 titer) (HSV-1 McKrae Strain [3]; [17]): 10^4 PFU/ml
virucidal efficacy (HSV-1 titer) (HSV-1 McKrae Strain [3]; [18]): 10^2 PFU/ml
virucidal efficacy (HSV-1 titer) (HSV-1 McKrae Strain [3]; [19]): 0 PFU/ml
virucidal efficacy (HSV-1 titer) (HSV-1 McKrae Strain [3]; [20]): 10^5 PFU/ml
effective virucidal concentration IC50 (HSV-1 McKrae Strain [3]; Experiment 2 (Table 6)): 100 µg/mL
effective virucidal concentration IC90 (HSV-1 McKrae Strain [3]; Experiment 2 (Table 6)): 1000 µg/mL
